Test results taken from patent US20250179013A1, “INHIBITORS OF RNA HELICASE DHX9 AND USES THEREOF” (ACCENT THERAPEUTICS, INC., priority 2022, published 2025).
pEC50, pIC50: −log10 of the molar value. Where two headings read alike, the source gives them in different places.

Tests used:
[1] = system: DHX9 (circBRIP1 mRNA in HCT116 cells); experiment: DHX9 circBRIP1 Cellular Target Engagement SYBR Green Assay; type: cell-based; details: Homo sapiens, HCT-116, circBRIP1 qPCR, 72 hours
[2] = target: T1, Human recombinant DHX9 protein (Homo sapiens, UniProt Q08211); experiment: DHX9 ATPase assay (ADP-Glo biochemical assay); details: for DHX9 Biochemical Max Inhibition: maximum inhibition in ATPase assay, 10 μM Aurintricarboxylic acid = 100%
T1 construct: purchased Viva
T1 sequence (Q08211 whole entry): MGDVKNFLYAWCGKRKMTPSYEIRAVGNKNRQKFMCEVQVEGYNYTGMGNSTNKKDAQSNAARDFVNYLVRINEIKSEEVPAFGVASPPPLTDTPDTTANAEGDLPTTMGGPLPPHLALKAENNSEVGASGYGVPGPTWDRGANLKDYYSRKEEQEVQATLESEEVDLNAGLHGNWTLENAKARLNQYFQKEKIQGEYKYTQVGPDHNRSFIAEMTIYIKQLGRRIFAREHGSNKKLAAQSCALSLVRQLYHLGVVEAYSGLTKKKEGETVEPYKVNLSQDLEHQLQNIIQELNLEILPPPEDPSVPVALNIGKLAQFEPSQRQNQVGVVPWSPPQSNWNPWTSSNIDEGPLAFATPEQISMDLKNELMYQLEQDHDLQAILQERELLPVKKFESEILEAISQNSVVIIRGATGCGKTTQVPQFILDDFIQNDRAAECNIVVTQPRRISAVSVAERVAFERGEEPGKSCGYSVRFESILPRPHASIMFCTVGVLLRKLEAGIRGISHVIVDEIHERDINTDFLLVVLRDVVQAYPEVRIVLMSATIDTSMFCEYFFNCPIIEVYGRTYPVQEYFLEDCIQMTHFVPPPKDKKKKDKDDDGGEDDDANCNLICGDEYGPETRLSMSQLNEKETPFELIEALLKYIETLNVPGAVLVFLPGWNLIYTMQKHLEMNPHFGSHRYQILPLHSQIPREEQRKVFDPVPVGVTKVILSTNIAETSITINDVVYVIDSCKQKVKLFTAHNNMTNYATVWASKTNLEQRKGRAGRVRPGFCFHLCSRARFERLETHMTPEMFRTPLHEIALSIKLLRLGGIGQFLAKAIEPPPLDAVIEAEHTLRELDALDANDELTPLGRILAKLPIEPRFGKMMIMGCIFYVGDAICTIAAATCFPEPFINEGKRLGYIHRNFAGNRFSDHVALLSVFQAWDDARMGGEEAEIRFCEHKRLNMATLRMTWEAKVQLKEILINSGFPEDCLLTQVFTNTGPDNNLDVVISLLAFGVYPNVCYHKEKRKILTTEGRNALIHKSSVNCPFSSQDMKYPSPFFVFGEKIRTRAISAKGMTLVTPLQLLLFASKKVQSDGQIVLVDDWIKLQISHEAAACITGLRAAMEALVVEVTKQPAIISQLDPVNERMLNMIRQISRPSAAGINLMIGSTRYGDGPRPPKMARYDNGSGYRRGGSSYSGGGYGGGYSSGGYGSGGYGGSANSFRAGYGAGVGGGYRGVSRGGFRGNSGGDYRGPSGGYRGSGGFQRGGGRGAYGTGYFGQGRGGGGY

[3] = read-out: DHX9 Biochemical Inflection Point

Row | pEC50 [1] | DHX9 Biochemical Max Inhibition [2] [%] | pIC50 [2, 3] | SMILES | pIC50 [2]
1 | < 4.52 | 64.4 | 6.31 | CC(C)(C)OC(=O)Nc1cccc(-c2csc(C(=O)Nc3cccc(NS(C)(=O)=O)c3)c2)c1 [Example 72] | –
2 | ≤ 4.52 | 77.2 | 7.65 | CS(=O)(=O)Nc1cccc(NC(=O)c2cc(-c3cc(C(=O)O)ccn3)cs2)c1 [Example 87] | –
3 | 5.32 | 75.6 | 7.79 | CS(=O)(=O)Nc1cccc(NC(=O)c2cc(-c3ncccc3O)cs2)c1 [Example 69] | –
4 | 4.96 | 69.2 | 7.12 | Cc1ncccc1-c1csc(C(=O)Nc2cccc(NS(C)(=O)=O)c2)c1 [Example 60] | –
5 | < 4.52 | 71.3 | 7.06 | CS(=O)(=O)Nc1cccc(NC(=O)c2cc(-c3cccnn3)cs2)c1 [Example 66] | –
6 | < 4.52 | 68.3 | 5.97 | CS(=O)(=O)Nc1cccc(NC(=O)c2cc(-c3ccccn3)n[nH]2)c1 [Example 81] | –
7 | 5.51 | 69.2 | 7.25 | CS(=O)(=O)Nc1cccc(NC(=O)c2cc(-c3cccc(N)c3)cs2)c1 [Example 58] | –
8 | < 4.52 | 80.3 | 6.06 | CS(=O)(=O)Nc1cccc(NC(=O)c2ccc(N3CCCC3)cc2)c1 [Example 31] | –
9 | 5.21 | 63.7 | 6.96 | CS(=O)(=O)Nc1cccc(NC(=O)c2cc(-c3cccc(O)c3)cs2)c1 [Example 73] | –
10 | 4.78 | 69.7 | 6.91 | CNC(=O)c1sc(C(=O)Nc2cccc(NS(C)(=O)=O)c2)cc1-c1ccccc1 [Example 152] | –
11 | 5.99 | 76.4 | 8.01 | CS(=O)(=O)Nc1cccc(NC(=O)c2cc(-c3ncccc3N)cs2)c1 [Example 89] | –
12 | 5.07 | 66.9 | 7.38 | Cc1ccc(-c2csc(C(=O)Nc3cccc(NS(C)(=O)=O)c3)c2)cn1 [Example 65] | –
13 | 4.56 | 61.2 | 6.55 | CS(=O)(=O)Nc1cccc(NC(=O)c2cnn(-c3ccccn3)c2)c1 [Example 41] | –
14 | < 4.52 | 61.2 | 4.72 | CS(=O)(=O)Nc1cccc(NC(=O)c2nc(-c3ccccn3)c[nH]2)c1 [Example 90] | –
15 | 4.64 | 70.4 | 6.73 | CS(=O)(=O)Nc1cccc(NC(=O)c2cc(-c3ccc(F)cc3)cs2)c1 [Example 53] | –
16 | < 4.52 | 60.8 | 6.57 | CS(=O)(=O)Nc1cccc(NC(=O)c2cc(-c3cncnc3)cs2)c1 [Example 62] | –
17 | < 4.52 | 65.4 | 5.99 | CS(=O)(=O)Nc1cccc(NC(=O)c2csc(-c3nnc[nH]3)n2)c1 [Example 33] | –
18 | < 4.52 | 72 | 6.18 | CC(=O)c1ccc(S(=O)(=O)Nc2ccc(C(=O)Nc3cccc(NS(C)(=O)=O)c3)cc2)cc1 [Example 20] | –
19 | 4.98 | 68.2 | 7.18 | CS(=O)(=O)Nc1cccc(NC(=O)c2cc(-c3ccccc3N)cs2)c1 [Example 88] | –
20 | 5.86 | 70.7 | 7.71 | CS(=O)(=O)Nc1cccc(NC(=O)c2cc(-c3cccc(N)n3)cs2)c1 [Example 85] | –
21 | < 4.52 | 47.2 | 5.19 | CS(=O)(=O)Nc1cccc(NC(=O)c2cc(-c3cccs3)ccn2)c1 [Example 44] | –
22 | – | 67.5 | 6.98 | Cc1ccc(-c2csc(C(=O)Nc3cccc(NS(C)(=O)=O)c3)c2)cc1 [Example 48] | –
23 | – | 73.3 | 6.09 | Cc1nc(-c2cc(C(=O)Nc3cccc(NS(C)(=O)=O)c3)co2)cs1 [Example 7] | –
24 | – | 66.9 | 7.24 | COCc1cccc(NC(=O)c2csc(C(=O)Nc3cccc(NS(C)(=O)=O)c3)c2)c1 [Example 134] | –
25 | – | 65.8 | 7.28 | Cn1c(=O)n(C)c2cc(NC(=O)c3csc(C(=O)Nc4cccc(NS(C)(=O)=O)c4)c3)ccc21 [Example 131] | –
26 | – | 78.1 | 6.23 | CS(=O)(=O)Nc1cccc(NC(=O)c2cc(-c3ccc(O)cc3)[nH]n2)c1 [Example 64] | –

Row | pEC50 [1] | DHX9 Biochemical Max Inhibition [2] [%] | pIC50 [2, 3] | SMILES | pIC50 [2]
27 | – | 67.7 | 6.58 | Cc1cccc(-c2csc(C(=O)Nc3cccc(NS(C)(=O)=O)c3)c2)c1 [Example 47] | –
28 | – | 72.9 | 6.90 | CS(=O)(=O)Nc1cccc(NC(=O)c2cc(C(=O)NC3CCc4ccccc43)cs2)c1 (centres unmarked) [Example 136] | –
29 | – | 71.4 | 6.26 | CS(=O)(=O)Nc1cccc(NC(=O)c2nc(-c3ccccc3)cs2)c1 [Example 42] | –
30 | – | 70.1 | 6.72 | CS(=O)(=O)Nc1cccc(NC(=O)c2cc(C(=O)NCCc3c[nH]c4ccccc34)cs2)c1 [Example 140] | –
31 | – | 68.7 | 6.43 | CS(=O)(=O)Nc1cccc(NC(=O)c2cnn(-c3ncccn3)c2)c1 [Example 43] | –
32 | – | 71.2 | 7.41 | CS(=O)(=O)Nc1cccc(NC(=O)c2cc(C(=O)Nc3nc4ccccc4[nH]3)cs2)c1 [Example 146] | –
33 | – | 68.5 | 7.09 | CS(=O)(=O)Nc1cccc(NC(=O)c2cc(C(=O)NCCC3CC3)cs2)c1 [Example 162] | –
34 | – | 50.7 | 5.60 | Cc1cc(C(=O)Nc2cccc(NS(C)(=O)=O)c2)nn1C1CCOCC1 [Example 17] | –
35 | – | 66.3 | 7.03 | CS(=O)(=O)Nc1cccc(NC(=O)c2cc(C(=O)NCc3nc4ccccc4[nH]3)cs2)c1 [Example 141] | –
36 | – | 70.3 | 6.68 | CS(=O)(=O)Nc1cccc(NC(=O)c2cc(C(=O)NCC3(O)CCCCC3)cs2)c1 [Example 105] | –
37 | – | 71.7 | 5.91 | Cc1nc(COc2ccc(C(=O)Nc3cccc(NS(C)(=O)=O)c3)cc2)cs1 [Example 22] | –
38 | – | 62.5 | 5.98 | CS(=O)(=O)Nc1cccc(NC(=O)c2csc(-c3ccc(F)cc3)n2)c1 [Example 24] | –
39 | – | 71.7 | 6.90 | CS(=O)(=O)Nc1cccc(NC(=O)c2cc(C(=O)NCCc3cccnc3)cs2)c1 [Example 103] | –
40 | – | 69.8 | 7.29 | CS(=O)(=O)Nc1cccc(NC(=O)c2cc(C(=O)Nc3ccc(CCO)cc3)cs2)c1 [Example 149] | –
41 | – | 65.9 | 6.84 | CS(=O)(=O)Nc1cccc(NC(=O)c2cc(C(=O)NCc3n[nH]c4ccccc34)cs2)c1 [Example 144] | –
42 | – | 51.4 | 6.03 | CS(=O)(=O)Nc1cccc(NC(=O)c2ccc(-n3cccc3)cc2)c1 [Example 23] | –
43 | – | 70.3 | 6.77 | CS(=O)(=O)Nc1cccc(NC(=O)c2cc(C(=O)Nc3cccc(-c4cccnc4)c3)cs2)c1 [Example 133] | –
44 | – | 74.6 | 6.77 | Cc1c(NC(=O)c2csc(C(=O)Nc3cccc(NS(C)(=O)=O)c3)c2)c(=O)n(-c2ccccc2)n1C [Example 107] | –
45 | – | 68.9 | 7.00 | CS(=O)(=O)Nc1cccc(NC(=O)c2cc(C(=O)NC3Cc4ccccc4C3)cs2)c1 [Example 112] | –
46 | – | 37.7 | 5.53 | CS(=O)(=O)Nc1cccc(NC(=O)c2ccc(-c3ccccc3)s2)c1 [Example 5] | –
47 | – | 68.3 | 6.94 | CC(C)(C)NC(=O)c1ccc(NC(=O)c2csc(C(=O)Nc3cccc(NS(C)(=O)=O)c3)c2)cc1 [Example 127] | –
48 | – | 66.2 | 7.00 | CC(C)Oc1ccc(NC(=O)c2csc(C(=O)Nc3cccc(NS(C)(=O)=O)c3)c2)cc1 [Example 118] | –
49 | – | 70.4 | 5.29 | CS(=O)(=O)Nc1cccc(NC(=O)c2ccc(C(=O)NC3CC3)cc2)c1 [Example 14] | –
50 | – | 56.3 | 5.73 | CS(=O)(=O)Nc1cccc(NC(=O)c2cc(-c3ccccc3)[nH]n2)c1 [Example 36] | –
51 | – | 72.4 | 5.41 | CS(=O)(=O)Nc1cccc(NC(=O)c2ccc(-c3nnn[nH]3)cc2)c1 [Example 21] | –
52 | – | 75 | 6.36 | CS(=O)(=O)Nc1cccc(NC(=O)c2cc(C(=O)Nc3ccccc3Oc3ccccc3)cs2)c1 [Example 115] | –

Row | SMILES | pEC50 [1] | DHX9 Biochemical Max Inhibition [2] [%] | pIC50 [2, 3] | pIC50 [2]
53 | CS(=O)(=O)Nc1cc(C=O)cc(NC(=O)c2cc(-c3ccccc3)cs2)c1 [Example 159, N-(3-formyl-5-(methylsulfonamido)phenyl)-4-phenylthiophene-2-carboxamide] | < 5.00 | 50.7 | 6.16 | –
54 | CS(=O)(=O)Nc1cccc(NC(=O)c2cc(C(=O)Nc3ccccc3)cs2)c1 [Example 102, N2-(3-(methylsulfonamido)phenyl)-N4-phenylthiophene-2,4-dicarboxamide] | 4.72 | 72.5 | – | 6.80
55 | CS(=O)(=O)Nc1cccc(NC(=O)c2cc(-c3ccc(N4CCNCC4)cn3)cs2)c1 [Example 91, N-(3-(methylsulfonamido)phenyl)-4-(5-(piperazin-1-yl)pyridin-2-yl)thiophene-2-carboxamide] | 5.12 | 74.6 | 8.14 | –
56 | CS(=O)(=O)Nc1cccc(NC(=O)c2cnn(-c3ccccc3)c2)c1 [Example 1] | < 4.52 | 71.6 | 6.47 | –
